By IC50 is commonly meant the point on the concentration scale where inhibition reaches its midpoint.

Molecules are shown by their SMILES. Some results are limits rather than exact numbers.

The target in this experiment is VHL (Homo sapiens (Human), UniProt P40337). The experiment can be described thus: VHL fluorescence polarization (FP) competition assay. It counts as binding. (In general: Polarisation of emitted light reports the rotation of a fluorescent probe.)

In the case of `Cc1ncsc1-c1ccc(CNC(=O)[C@@H]2C[C@@H](O)CN2C(=O)[C@H](C(C)C)N2Cc3cccc(Cl)c3C2=O)cc1` [Example 7, (2S,4R)-1-((S)-2-(7-cloro-1-oxoisoindolin-2-yl)-3-methylbutanoyl)-4-hydroxy-N-(4-(4-methylthiazol-5-yl)benzyl)pyrrolidine-2-carboxamide], the IC50 (1% in DMSO) was 7.51 µM and the IC50 (10% in DMSO) is 8.52 µM.
With `COc1ccc2c(c1)CN([C@H](C(=O)N1C[C@H](O)C[C@H]1C(=O)NCc1ccc(-c3scnc3C)cc1)C(C)C)C2=O` [Example 72, (2S,4R)-4-hydroxy-1-((S)-2-(5-methoxy-1-oxoisoindolin-2-yl)-3-methylbutanoyl)-N-(4-(4-methylthiazol-5-yl)benzyl)pyrrolidine-2-carboxamide], the IC50 was found to be 0.86 µM (1% in DMSO) and 1.03 µM (10% in DMSO).
As for `COC1=CC(=O)N([C@H](C(=O)N2C[C@H](O)C[C@H]2C(=O)NCc2ccc(-c3scnc3C)cc2)C(C)C)C1` [Example 111, (2S,4R)-4-hydroxy-1-((S)-2-(4-methoxy-2-oxo-2,5-dihydro-1H-pyrrol-1-yl)-3-methylbutanoyl)-N-(4-(4-methylthiazol-5-yl)benzyl)pyrrolidine-2-carboxamide], the IC50 (1% in DMSO) amounted to 0.859 µM.
Take `COc1ccccc1CCC(=O)N[C@H](C(=O)N1C[C@H](O)C[C@H]1C(=O)NCc1ccc(-c2scnc2C)cc1)C(C)(C)C` [Example 83, (2S,4R)-4-hydroxy-1-((S)-2-(3-(2-methoxyphenyl)propanamido)-3,3-dimethylbutanoyl)-N-(4-(4-methylthiazol-5-yl)benzyl)pyrrolidine-2-carboxamide]: the IC50 (1% in DMSO) was 0.626 µM and the IC50 (10% in DMSO) was 0.32 µM.
Compound `Cc1ncsc1-c1ccc(CNC(=O)[C@@H]2C[C@@H](O)CN2C(=O)[C@H](C2CCCC2)N2Cc3ccccc3C2=O)cc1` [Example 38, (2S,4R)-1-((S)-2-cyclopentyl-2-(1-oxoisoindolin-2-yl)acetyl)-4-hydroxy-N-(4-(4-methylthiazol-5-yl)benzyl)pyrrolidine-2-carboxamide] registered a 50% inhibitory concentration (IC50) (0.25% in DMSO) of 2.19 µM, a concentration for half-maximal inhibition (IC50) (1% in DMSO) of 0.758 µM and an IC50 (10% in DMSO) of 1.09 µM.
As to `Cc1ncsc1-c1ccc(CNC(=O)[C@@H]2C[C@@H](O)CN2C(=O)[C@@H](NC(=O)c2ccccn2)C(C)(C)C)cc1` [Example 78, N—((S)-1-((2S,4R)-4-hydroxy-2-(4-(4-methylthiazol-5-yl)benzylcarbamoyl)pyrrolidin-1-yl)-3,3-dimethyl-1-oxobutan-2-yl)picolinamide], the IC50 is, setting by setting: (1% in DMSO) 1.03 µM; (10% in DMSO) 0.81 µM.
On the same counts, the results for `Cc1ncsc1-c1ccc(CNC(=O)[C@@H]2C[C@@H](O)CN2C(=O)[C@H](CS)N2Cc3ccccc3C2=O)cc1` [Example 48, (2S,4R)-4-hydroxy-1-((R)-3-mercapto-2-(1-oxoisoindolin-2-yl)propanoyl)-N-(4-(4-methylthiazol-5-yl)benzyl)pyrrolidine-2-carboxamide] are 3.77 µM and 4.7 µM.
Take `Cc1ncsc1-c1ccc(CNC(=O)C2(C)C[C@@H](O)CN2C(=O)[C@H](C(C)C)N2Cc3ccccc3C2=O)cc1` (some centres unmarked) [Example 131]: the “VHL FP Assay IC50” value (1% in DMSO) is recorded as “Not Active”.
`Cc1ncsc1-c1ccc(CNC(=O)[C@@H]2C[C@@H](O)CN2C(=O)[C@@H](NC(=O)CN)C(C)(C)C)cc1` [Example 125, (2S,4R)-1-((S)-2-(2-aminoacetamido)-3,3-dimethylbutanoyl)-4-hydroxy-N-(4-(4-methylthiazol-5-yl)benzyl)pyrrolidine-2-carboxamide] had an IC50 (1% in DMSO) of 1.64 µM.
`CC(C)[C@@H](C(=O)N1C[C@H](O)C[C@H]1C(=O)NCc1ccc(N2CCOCC2)cc1)N1Cc2ccccc2C1=O` [Example 91, (2S,4R)-4-hydroxy-1-((S)-3-methyl-2-(1-oxoisoindolin-2-yl)butanoyl)-N-(4-morpholinobenzyl)pyrrolidine-2-carboxamide] displayed an IC50 (1% in DMSO) of over 100 µM.
`Cc1ncsc1-c1ccc(CNC(=O)[C@@H]2C[C@@H](O)CN2C(=O)[C@H](C(C)C)N2Cc3ccccc3C2=O)c(F)c1` [Example 82, (2S,4R)—N-(2-fluoro-4-(4-methylthiazol-5-yl)benzyl)-4-hydroxy-1-((S)-3-methyl-2-(1-oxoisoindolin-2-yl)butanoyl)pyrrolidine-2-carboxamide] returned an IC50 (1% in DMSO) of 1.64 µM and an IC50 (10% in DMSO) of 1.58 µM.
On the same counts, the results for `Cc1ncsc1-c1ccc(CNC(=O)[C@@H]2C[C@@H](O)CN2C(=O)C(C)(C)N2Cc3ccccc3C2=O)cc1` [Example 46, (2S,4R)-4-hydroxy-1-(2-methyl-2-(1-oxoisoindolin-2-yl)propanoyl)-N-(4-(4-methylthiazol-5-yl)benzyl)pyrrolidine-2-carboxamide] are 19400 µM and 5100 µM.
The matching figures for `Cc1ncsc1-c1ccc(CNC(=O)[C@@H]2C[C@@H](O)CN2C(=O)C2(N3Cc4ccccc4C3=O)CCC2)cc1` [Example 55, (2S,4R)-4-hydroxy-N-(4-(4-methylthiazol-5-yl)benzyl)-1-(1-(1-oxoisoindolin-2-yl)cyclobutanecarbonyl)pyrrolidine-2-carboxamide]: 115 µM and 461 µM.
The matching figures for `Cc1ncsc1-c1ccc(CNC(=O)[C@@H]2C[C@@H](O)CN2C(=O)C(N)C(F)(F)F)cc1` (stereo partly drawn) [Example 89, (2S,4R)-1-(2-amino-3,3,3-trifluoropropanoyl)-4-hydroxy-N-(4-(4-methylthiazol-5-yl)benzyl)pyrrolidine-2-carboxamide]: 60.6 µM and 139 µM.
Regarding `Cc1ncsc1-c1ccc(CNC[C@@H]2C[C@@H](O)CN2C(=O)[C@H](C(C)C)N2Cc3ccccc3C2=O)cc1` [Example 121, 2-((S)-1-((2S,4R)-4-hydroxy-2-((4-(4-methylthiazol-5-yl)benzylamino)methyl)pyrrolidin-1-yl)-3-methyl-1-oxobutan-2-yl)isoindolin-1-one], the IC50 (1% in DMSO) was over 100 µM.
Compound `COc1ccc(CCC(=O)N[C@H](C(=O)N2C[C@H](O)C[C@H]2C(=O)NCc2ccc(-c3scnc3C)cc2)C(C)(C)C)cc1` [Example 76, (2S,4R)-4-hydroxy-1-((S)-2-(3-(4-methoxyphenyl)propanamido)-3,3-dimethylbutanoyl)-N-(4-(4-methylthiazol-5-yl)benzyl)pyrrolidine-2-carboxamide] had an IC50 (1% in DMSO) of 0.169 µM.
The compound `Cc1ncsc1-c1ccc(CNC(=O)[C@@H]2C[C@@H](O)CN2C(=O)[C@@H](NCCC(C)C)C2CCCC2)cc1` [Example 32, (2S,4R)-1-((S)-2-cyclopentyl-2-(isopentylamino)acetyl)-4-hydroxy-N-(4-(4-methylthiazol-5-yl)benzyl)pyrrolidine-2-carboxamide] showed an IC50 (0.25% in DMSO) of 2.22 µM, an IC50 (1% in DMSO) of 1.15 µM and a 50% inhibitory concentration (IC50) (10% in DMSO) of 3.36 µM.
`CC(C)[C@@H](C(=O)N1C[C@H](O)C[C@H]1C(=O)NCc1ccc(-c2cncs2)cc1)N1Cc2ccccc2C1=O` [Example 97, (2S,4R)-4-hydroxy-1-((S)-3-methyl-2-(1-oxoisoindolin-2-yl)butanoyl)-N-(4-(thiazol-5-yl)benzyl)pyrrolidine-2-carboxamide]: the IC50 (1% in DMSO) stood at 1.45 µM.
Take `COc1cccc(CCC(=O)N[C@H](C(=O)N2C[C@H](O)C[C@H]2C(=O)NCc2ccc(-c3scnc3C)cc2)C(C)(C)C)c1` [Example 77, (2S,4R)-4-hydroxy-1-((S)-2-(3-(3-methoxyphenyl)propanamido)-3,3-dimethylbutanoyl)-N-(4-(4-methylthiazol-5-yl)benzyl)pyrrolidine-2-carboxamide]: the IC50 came out at 0.55 µM (1% in DMSO) and 0.349 µM (10% in DMSO).
Compound `Cc1ncsc1-c1ccc(CNC(=O)[C@@H]2C[C@@H](O)CN2C(=O)c2ccccc2)cc1` [Example 64, (2S,4R)-1-benzoyl-4-hydroxy-N-(4-(4-methylthiazol-5-yl)benzyl)pyrrolidine-2-carboxamide] came in with an IC50 (1% in DMSO) of 16.8 µM and an IC50 (10% in DMSO) of 30.5 µM.
In the case of `CSC[C@@H](C(=O)N1C[C@H](O)C[C@H]1C(=O)NCc1ccc(-c2scnc2C)cc1)N1Cc2ccccc2C1=O` [Example 37, (2S,4R)-4-hydroxy-N-(4-(4-methylthiazol-5-yl)benzyl)-1-((R)-3-(methylthio)-2-(1-oxoisoindolin-2-yl)propanoyl)pyrrolidine-2-carboxamide], the IC50 turned out to be 1.9 µM (0.25% in DMSO), 20.6 µM (1% in DMSO) and 7.41 µM (10% in DMSO).
The compound `Cc1ncsc1-c1ccc(CNC(=O)[C@@H]2C[C@@H](O)CN2C(=O)[C@H]([C@H](C)O)N2Cc3ccccc3C2=O)cc1` [Example 45, (2S,4R)-4-hydroxy-1-((2S,3S)-3-hydroxy-2-(1-oxoisoindolin-2-yl)butanoyl)-N-(4-(4-methylthiazol-5-yl)benzyl)pyrrolidine-2-carboxamide] registered an IC50 (1% in DMSO) of about 32 µM and an IC50 (10% in DMSO) of 472 µM.
As for `Cc1ncsc1-c1ccc(CNC(=O)[C@@H]2C[C@@H](O)CN2C(=O)[C@@H](NC(=O)C(C)C)C(C)(C)C)cc1` [Example 27, (2S,4R)-4-hydroxy-1-((S)-2-isobutyramido-3,3-dimethylbutanoyl)-N-(4-(4-methylthiazol-5-yl)benzyl)pyrrolidine-2-carboxamide], the IC50 is about 1.57 µM (0.25% in DMSO), 3.04 µM (1% in DMSO) and 8.31 µM (10% in DMSO).
The compound `CC(C)[C@@H](C(=O)N1C[C@H](O)C[C@H]1C(=O)NCc1ccc(C2CCCC2)cc1)N1Cc2ccccc2C1=O` [Example 115, (2S,4R)—N-(4-cyclopentylbenzyl)-4-hydroxy-1-((S)-3-methyl-2-(1-oxoisoindolin-2-yl)butanoyl)pyrrolidine-2-carboxamide] registered an IC50 (1% in DMSO) of 15.8 µM.
For the compound `Cc1ncsc1-c1ccc(CNC(=O)[C@@H]2C[C@@H](O)CN2C(=O)[C@@H](NC(=O)CCC(C)C)[C@H](C)O)cc1` [Example 51, (2S,4R)-4-hydroxy-1-((2S,3S)-3-hydroxy-2-(4-methylpentanamido)butanoyl)-N-(4-(4-methylthiazol-5-yl)benzyl)pyrrolidine-2-carboxamide], the IC50 is, setting by setting: (1% in DMSO) 56.6 µM; (10% in DMSO) 1520 µM.
For `CC(C)[C@@H](C(=O)N1C[C@H](O)C[C@H]1C(=O)NCc1ccc(C2=CCCC2)cc1)N1Cc2ccccc2C1=O` [Example 116, (2S,4R)—N-(4-cyclopentenylbenzyl)-4-hydroxy-1-((S)-3-methyl-2-(1-oxoisoindolin-2-yl)butanoyl)pyrrolidine-2-carboxamide], where the note is “1% in DMSO”, the IC50 was determined as 3.9 µM.

The values are drawn from patent publication US10730870B2, “Compounds and methods for the enhanced degradation of targeted proteins” (Arvinas, Inc., priority 2015, dated 2020).
